Columns and labels:
Type in all cases: cell-based, human
[1] = test system: MDAMB231; assay: Cell survival, trypan blue counting; settings: for efficacy of the combination of PARPi with AsiDNA versus calculated additivity: 4.8 μM or 16 μM AsiDNA, PARPi doses giving 80% and 50% survival, 6 days; for IC20 / IC50: Homo sapiens, MDA-MB-231, MDAMB231; for IC20: PARPi dose giving 80% survival; for IC50: PARPi dose resulting in 50% survival
Description: Cells were grown according to the supplier's instructions.

[2] = test system: Breast cancer cell lines MDAMB231; assay: Cell survival with DT01 and PARP inhibitors (Example 1, FIG. 1); settings: DT01 100 or 333 μg/ml plus Olaparib 0.1, 1 μM or Veliparib 1, 10, 50 μM; 6 days
Description: Breast cancer cell lines MDAMB231 were treated with 100 μg/ml (Black, Squares) or 333 μg/ml (Grey, Crosses) of DT01 or no DT01 (Black, Diamond) and exposed to either 0, 0.1 and 1 μM of Olaparib (upper panel) or 1, 10 and 50 μM Veliparib (lower panel). Survival was measured 6 days after treatment using trypan blue to detect living cells. The data are presented as % of the non-treated control.
The human cell lines were grown in complete RPMI (Gibco, Cergy Pontoise, France) supplemented with 10% fetal bovine serum (ATGC, Orléans, France), 1% sodium pyruvate, streptomycin ([…]) and penicillin ([…]) (Invitrogen, Carlsbad, Calif., USA). Cells were maintained at 37° C. under a 5% CO2 atmosphere, at 100% humidity. Treatments were performed by adding nucleotides (DT01 and others) or/and PARP inhibitors at time zero in medium without serum. The medium was changed with fresh medium containing fetal bovine serum 24 hours after beginning of treatment. Cells were let to grow for 4 additional days (5 days after treatment), treated with trypsin and counted for total number of cells. Trypan blue (0.4%) was added for counting the living cells (uncolored) in the population.

[3] = test system: 3 BC cell lines; assay: Combined treatment survival in BC cell lines (FIG. 6, 7, 12); settings: AsiDNA 4.8 μM with veliparib 10 and 50 μM; 6 days
Description: (§1) Efficacy of AsiDNA (4. 8 μM), olaparib (0, 0.1 and 1 μM) or both was monitored 6 days after treatment by cell counting after trypan blue labeling. (A) Percentage of living cells relative to non-treated condition (NT). (B) Percentage of dead cells. Data are expressed as mean+Sc.D. of at least 2 independent experiments. Dotted lines indicate the calculated cell survivals if additivity between AsiDNA and olaparib.
Efficacy of AsiDNA (4.8 μM), veliparib (0, 10 and 50 μM) or both was monitored 6 days after treatment by trypan blue staining. (A) Percentage of living cells relative to non-treated condition (NT). (B) Percentage of dead cells. Dotted lines indicate the calculated cell survivals if additivity between AsiDNA and veliparib.
The inventors monitored cell survival to combined treatment of 3 BC and 2 non-tumor cell lines with different sensitivities to Ola and AsiDNA alone (FIG. 6; Table 1). […] However, the combination remained more efficient or at least equal to the expected additive effect at all the tested doses. […] In contrast, the normal cells were insensitive to both, the combined and the single treatments with AsiDNA and Ola (FIG. 6; Table 1).

[4] = test system: 2 non-tumor cell lines; assay: Combined treatment survival in non-tumor cell lines (FIG. 6, 12); settings: AsiDNA 4.8 μM with veliparib 10 and 50 μM; 6 days
Description: as §1
(A) Percentage of living cells relative to non-treated condition (NT). (B) Percentage of dead cells. Dotted lines indicate the calculated cell survivals if additivity between AsiDNA and veliparib.
The inventors monitored cell survival to combined treatment of 3 BC and 2 non-tumor cell lines with different sensitivities to Ola and AsiDNA alone (FIG. 6; Table 1).

SMILES	efficacy of the combination of PARPi with AsiDNA versus calculated additivity [1]	IC20 [1] [nM]	IC50 [1] [nM]	survival to combined treatment with DT01 versus expected added effect of both single treatments [2]	effect of the combined treatment with AsiDNA [3]	synergistic effect of the combined treatment with AsiDNA [4]
Cn1ncnc1[C@H]1c2n[nH]c(=O)c3cc(F)cc(c23)N[C@@H]1c1ccc(F)cc1 [BMN673, (8S,9R)-5-fluoro-8-(4-fluorophenyl)-9-(1-methyl-1H-1,2,4-triazol-5-yl)-8,9-dihydro-2H-pyrido[4,3,2de]phthalazin-3(7H)-one]	supra-additive efficacy	0.13	15.4	–	–	–
CNCc1ccc(-c2[nH]c3cc(F)cc4c3c2CCNC4=O)cc1 [Rucaparib, 8-Fluoro-2-{4-[(methylamino)methyl]phenyl}-1,3,4,5-tetrahydro-6H-azepino[5,4,3-cd]indol-6-one]	supra-additive efficacy	400	1800	–	–	–
COC1CCN(C(=O)c2cc(Cc3n[nH]c(=O)c4ccccc34)ccc2F)CC1 [AZD2461]	supra-additive efficacy	100	500	–	–	–
C[C@]1(c2nc3c(C(N)=O)cccc3[nH]2)CCCN1 [Veliparib, 2-((fi)-2-methylpyrrolidin-2-yl)-1W-benzimidazole-4-carboxamide]	–	–	–	synergic effect	synergistic effect	absent
NC(=O)c1cccc2cn(-c3ccc([C@@H]4CCCNC4)cc3)nc12 [Niraparib]	supra-additive efficacy	100	700	–	–	–
NC(=O)c1ccc(I)c([N+](=O)[O-])c1 [Iniparib]	supra-additive efficacy	46000	49500	–	–	–
